Values joined by “and” are separate entries in the source; they are usually repeats but may differ in a detail not shown here. Equal entries are not always repeated.
How the values were obtained:
Assay in all cases: DUB selectivity profiling (DUBprofiler, ubiquitin–rhodamine(110)–glycine)
Assay type in all cases: biochemical
[1] = target: T1, panel of 48 purified DUBs (Homo sapiens, UniProt Q8TAC2); settings: DUB JOSD2; screening concentration 5 μM; 5 µM
T1 construct: purchased Ubiquigent (DUBprofiler service)
Experimental: (§1) Biochemical selectivity profiling (DUBprofiler) was performed by Ubiquigent with a panel of 48 purified DUBs and ubiquitin–rhodamine(110)–glycine as a fluorescent substrate.

[2] = target: T2, panel of 48 purified DUBs (Homo sapiens, UniProt Q7L8S5); settings: DUB OTUD6A; screening concentration 5 μM; 5 µM
T2 construct: purchased Ubiquigent (DUBprofiler service)
Experimental: as §1

[3] = target: T3, panel of 48 purified DUBs (Homo sapiens, UniProt Q9P2H5); settings: DUB USP35; screening concentration 5 μM; 5 µM
T3 construct: purchased Ubiquigent (DUBprofiler service)
Experimental: as §1

[4] = target: T4, panel of 48 purified DUBs (Homo sapiens, UniProt Q96JH7); settings: DUB VCPIP; screening concentration 5 μM
T4 construct: purchased Ubiquigent (DUBprofiler service)
Experimental: as §1

[5] = target: T5, panel of 48 purified DUBs (Homo sapiens, UniProt Q70EL2); settings: DUB USP45; screening concentration 5 μM; 5 µM
T5 construct: purchased Ubiquigent (DUBprofiler service)
Experimental: as §1

[6] = target: T6, panel of 48 purified DUBs (Homo sapiens, UniProt P54578); settings: DUB USP14; screening concentration 5 μM; 5 µM
T6 construct: purchased Ubiquigent (DUBprofiler service)
Experimental: as §1

[7] = target: T7, panel of 48 purified DUBs (Homo sapiens, UniProt Q5T2D3); settings: DUB OTUD3; screening concentration 5 μM; 5 µM
T7 construct: purchased Ubiquigent (DUBprofiler service)
Experimental: as §1

[8] = target: T8, panel of 48 purified DUBs (Homo sapiens, UniProt Q9UHP3); settings: DUB USP25; screening concentration 5 μM; 5 µM
T8 construct: purchased Ubiquigent (DUBprofiler service)
Experimental: as §1

[9] = target: T9, panel of 48 purified DUBs (Homo sapiens, UniProt P09936); settings: DUB UCHL1; screening concentration 5 μM; 5 µM
T9 construct: purchased Ubiquigent (DUBprofiler service)
Experimental: as §1

[10] = target: T10, panel of 48 purified DUBs (Homo sapiens, UniProt O75317); settings: DUB USP12/UAF1/WDR20; screening concentration 5 μM
T10 construct: purchased Ubiquigent (DUBprofiler service)
Experimental: as §1

[11] = target: T11, panel of 48 purified DUBs (Homo sapiens, UniProt Q70CQ3); settings: DUB USP30; screening concentration 5 μM
T11 construct: purchased Ubiquigent (DUBprofiler service)
Experimental: as §1

[12] = target: T12, panel of 48 purified DUBs (Homo sapiens, UniProt Q96RU2); settings: DUB USP28; screening concentration 5 μM; 5 µM
T12 construct: purchased Ubiquigent (DUBprofiler service)
Experimental: as §1

[13] = target: T13, panel of 48 purified DUBs (Homo sapiens, UniProt Q5VV17); settings: DUB OTUD1; screening concentration 5 μM; 5 µM
T13 construct: purchased Ubiquigent (DUBprofiler service)
Experimental: as §1

[14] = test system: panel of 48 purified DUBs; settings: single dose 5 μM, including AMSH-LP
Experimental: as §1

[15] = target: T14, panel of 48 purified DUBs (Homo sapiens, UniProt Q8N6M0); settings: DUB OTUD6B; screening concentration 5 μM; 5 µM
T14 construct: purchased Ubiquigent (DUBprofiler service)
Experimental: as §1

[16] = target: T15, panel of 48 purified DUBs (Homo sapiens, UniProt Q6R6M4); settings: DUB USP17; screening concentration 5 μM; 5 µM
T15 construct: purchased Ubiquigent (DUBprofiler service)
Experimental: as §1

[17] = target: T16, panel of 48 purified DUBs (Homo sapiens, UniProt Q96DC9); settings: DUB OTUB2; screening concentration 5 μM; 5 µM
T16 construct: purchased Ubiquigent (DUBprofiler service)
Experimental: as §1

[18] = target: T17, panel of 48 purified DUBs (Homo sapiens, UniProt O94966); settings: DUB USP19; screening concentration 5 μM; 5 µM
T17 construct: purchased Ubiquigent (DUBprofiler service)
Experimental: as §1

[19] = target: T18, panel of 48 purified DUBs (Homo sapiens, UniProt P54252); settings: DUB Ataxin3; screening concentration 5 μM; 5 µM
T18 construct: purchased Ubiquigent (DUBprofiler service)
Experimental: as §1

[20] = target: T19, panel of 48 purified DUBs (Homo sapiens, UniProt Q9Y5T5); settings: DUB USP16; screening concentration 5 μM; 5 µM
T19 construct: purchased Ubiquigent (DUBprofiler service)
Experimental: as §1

[21] = target: T20, panel of 48 purified DUBs (Homo sapiens, UniProt Q9Y4E8); settings: DUB USP15; screening concentration 5 μM; 5 µM
T20 construct: purchased Ubiquigent (DUBprofiler service)
Experimental: as §1

[22] = target: T21, panel of 48 purified DUBs (Homo sapiens, UniProt Q93008); settings: DUB USP9X; screening concentration 5 μM; 5 µM
T21 construct: purchased Ubiquigent (DUBprofiler service)
Experimental: as §1

[23] = target: T22, panel of 48 purified DUBs (Homo sapiens, UniProt A6NNY8); settings: DUB USP27X; screening concentration 5 μM; 5 µM
T22 construct: purchased Ubiquigent (DUBprofiler service)
Experimental: as §1

[24] = target: T23, panel of 48 purified DUBs (Homo sapiens, UniProt Q6GQQ9); settings: DUB Cezanne; screening concentration 5 μM; 5 µM
T23 construct: purchased Ubiquigent (DUBprofiler service)
Experimental: as §1

[25] = target: T24, panel of 48 purified DUBs (Homo sapiens, UniProt O94782); settings: DUB USP1/UAF1; screening concentration 5 μM; 5 µM
T24 construct: purchased Ubiquigent (DUBprofiler service)
Experimental: as §1

[26] = target: T25, panel of 48 purified DUBs (Homo sapiens, UniProt Q96FJ0); settings: screening concentration 5 μM, 5 µM
T25 construct: purchased Ubiquigent (DUBprofiler service)
Experimental: as §1

[27] = target: T26, panel of 48 purified DUBs (Homo sapiens, UniProt P40818); settings: DUB USP8; screening concentration 5 μM; 5 µM
T26 construct: purchased Ubiquigent (DUBprofiler service)
Experimental: as §1

[28] = target: T27, panel of 48 purified DUBs (Homo sapiens, UniProt P15374); settings: DUB UCHL3; screening concentration 5 μM; 5 µM
T27 construct: purchased Ubiquigent (DUBprofiler service)
Experimental: as §1

[29] = target: T28, panel of 48 purified DUBs (Homo sapiens, UniProt P62068); settings: DUB USP46/UAF1/WDR20; screening concentration 5 μM; 5 µM
T28 construct: purchased Ubiquigent (DUBprofiler service)
Experimental: as §1

[30] = target: T29, panel of 48 purified DUBs (Homo sapiens, UniProt Q14694); settings: DUB USP10; screening concentration 5 μM; 5 µM
T29 construct: purchased Ubiquigent (DUBprofiler service)
Experimental: as §1

T25 sequence (Q96FJ0 whole entry): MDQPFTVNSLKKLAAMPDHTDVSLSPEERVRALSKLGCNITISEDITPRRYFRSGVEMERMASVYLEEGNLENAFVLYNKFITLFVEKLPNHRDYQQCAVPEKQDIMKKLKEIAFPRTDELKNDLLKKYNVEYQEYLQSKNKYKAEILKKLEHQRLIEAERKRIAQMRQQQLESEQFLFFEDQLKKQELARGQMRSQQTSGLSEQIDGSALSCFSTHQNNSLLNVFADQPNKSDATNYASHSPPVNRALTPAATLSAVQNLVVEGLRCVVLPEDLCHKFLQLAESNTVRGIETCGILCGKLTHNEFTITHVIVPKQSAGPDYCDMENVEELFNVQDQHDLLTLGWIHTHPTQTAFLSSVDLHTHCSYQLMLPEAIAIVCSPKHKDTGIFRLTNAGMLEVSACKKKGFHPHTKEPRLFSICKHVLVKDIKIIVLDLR
T17 sequence (O94966 whole entry): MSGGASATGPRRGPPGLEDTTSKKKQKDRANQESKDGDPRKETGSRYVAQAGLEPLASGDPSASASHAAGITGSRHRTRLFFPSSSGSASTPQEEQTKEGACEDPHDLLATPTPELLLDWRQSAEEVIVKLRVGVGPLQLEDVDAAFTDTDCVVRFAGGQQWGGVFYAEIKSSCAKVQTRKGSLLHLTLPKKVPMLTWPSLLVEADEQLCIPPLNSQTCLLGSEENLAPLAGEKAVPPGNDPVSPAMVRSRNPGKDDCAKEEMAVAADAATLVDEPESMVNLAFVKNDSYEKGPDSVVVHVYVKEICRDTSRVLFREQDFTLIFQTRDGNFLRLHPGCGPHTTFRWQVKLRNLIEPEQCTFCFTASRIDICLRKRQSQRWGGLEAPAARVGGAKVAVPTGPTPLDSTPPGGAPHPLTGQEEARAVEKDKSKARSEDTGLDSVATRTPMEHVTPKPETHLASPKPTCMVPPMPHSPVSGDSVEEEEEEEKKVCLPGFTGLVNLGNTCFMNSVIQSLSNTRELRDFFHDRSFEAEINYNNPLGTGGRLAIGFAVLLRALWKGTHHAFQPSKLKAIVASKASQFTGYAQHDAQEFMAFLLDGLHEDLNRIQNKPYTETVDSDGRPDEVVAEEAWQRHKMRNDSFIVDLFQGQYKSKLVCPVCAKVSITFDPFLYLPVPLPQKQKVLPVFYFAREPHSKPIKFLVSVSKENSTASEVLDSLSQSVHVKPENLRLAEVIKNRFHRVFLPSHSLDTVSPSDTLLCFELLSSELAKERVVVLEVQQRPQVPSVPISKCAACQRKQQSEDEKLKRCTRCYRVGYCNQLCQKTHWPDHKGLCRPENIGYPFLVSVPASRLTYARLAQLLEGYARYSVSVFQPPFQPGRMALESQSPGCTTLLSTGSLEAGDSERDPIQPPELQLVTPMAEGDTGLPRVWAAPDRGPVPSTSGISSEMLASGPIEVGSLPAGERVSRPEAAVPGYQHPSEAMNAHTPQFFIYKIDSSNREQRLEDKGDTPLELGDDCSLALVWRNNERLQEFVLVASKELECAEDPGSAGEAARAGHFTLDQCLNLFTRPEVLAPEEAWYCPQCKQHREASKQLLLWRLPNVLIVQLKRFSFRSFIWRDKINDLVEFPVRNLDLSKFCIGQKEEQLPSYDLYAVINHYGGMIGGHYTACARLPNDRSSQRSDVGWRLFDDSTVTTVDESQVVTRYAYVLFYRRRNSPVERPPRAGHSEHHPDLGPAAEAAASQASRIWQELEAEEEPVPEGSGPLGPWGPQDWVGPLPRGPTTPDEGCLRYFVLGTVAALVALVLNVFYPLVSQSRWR
T1 sequence (Q8TAC2 whole entry): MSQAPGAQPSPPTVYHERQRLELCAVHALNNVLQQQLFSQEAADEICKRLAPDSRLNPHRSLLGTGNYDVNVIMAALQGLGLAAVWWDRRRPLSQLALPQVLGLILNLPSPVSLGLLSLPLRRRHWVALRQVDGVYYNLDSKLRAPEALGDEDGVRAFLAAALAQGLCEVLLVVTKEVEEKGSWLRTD
T7 sequence (Q5T2D3 whole entry): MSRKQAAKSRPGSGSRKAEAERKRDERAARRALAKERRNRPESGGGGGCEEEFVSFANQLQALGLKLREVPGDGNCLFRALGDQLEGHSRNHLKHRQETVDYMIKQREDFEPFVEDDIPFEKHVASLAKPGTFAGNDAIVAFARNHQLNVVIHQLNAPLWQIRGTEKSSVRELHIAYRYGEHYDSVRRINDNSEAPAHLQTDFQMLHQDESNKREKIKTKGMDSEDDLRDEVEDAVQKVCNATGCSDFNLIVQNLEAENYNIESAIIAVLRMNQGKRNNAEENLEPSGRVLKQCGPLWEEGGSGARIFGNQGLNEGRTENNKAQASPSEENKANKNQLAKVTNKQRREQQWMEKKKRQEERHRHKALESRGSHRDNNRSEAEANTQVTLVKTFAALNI
T8 sequence (Q9UHP3 whole entry): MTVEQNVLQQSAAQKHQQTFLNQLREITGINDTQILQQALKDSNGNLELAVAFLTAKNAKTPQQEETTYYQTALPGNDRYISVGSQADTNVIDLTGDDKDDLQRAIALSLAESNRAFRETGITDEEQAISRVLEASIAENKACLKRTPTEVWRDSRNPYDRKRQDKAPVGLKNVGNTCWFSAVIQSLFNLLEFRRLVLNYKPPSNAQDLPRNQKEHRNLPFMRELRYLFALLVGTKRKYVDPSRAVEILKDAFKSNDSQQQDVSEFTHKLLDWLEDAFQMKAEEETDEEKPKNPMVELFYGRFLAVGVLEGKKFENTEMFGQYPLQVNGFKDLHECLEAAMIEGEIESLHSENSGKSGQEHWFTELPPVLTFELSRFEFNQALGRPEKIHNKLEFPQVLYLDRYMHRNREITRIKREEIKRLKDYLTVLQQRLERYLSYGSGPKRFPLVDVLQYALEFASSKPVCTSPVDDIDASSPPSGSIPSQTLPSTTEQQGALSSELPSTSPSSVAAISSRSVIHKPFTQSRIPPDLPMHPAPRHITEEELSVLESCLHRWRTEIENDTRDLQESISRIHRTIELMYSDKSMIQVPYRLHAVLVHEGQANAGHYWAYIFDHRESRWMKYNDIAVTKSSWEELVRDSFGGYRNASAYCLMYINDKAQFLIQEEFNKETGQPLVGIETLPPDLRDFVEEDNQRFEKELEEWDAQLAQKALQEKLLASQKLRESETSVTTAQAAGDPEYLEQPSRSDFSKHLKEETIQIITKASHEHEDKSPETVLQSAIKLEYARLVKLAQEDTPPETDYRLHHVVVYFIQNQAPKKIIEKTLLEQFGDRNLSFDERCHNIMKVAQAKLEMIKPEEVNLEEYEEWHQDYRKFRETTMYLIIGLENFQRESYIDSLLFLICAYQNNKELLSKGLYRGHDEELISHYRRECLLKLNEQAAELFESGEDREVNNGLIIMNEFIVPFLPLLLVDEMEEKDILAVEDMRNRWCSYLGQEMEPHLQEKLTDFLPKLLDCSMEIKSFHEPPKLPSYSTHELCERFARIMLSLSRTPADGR
T24 sequence (O94782 whole entry): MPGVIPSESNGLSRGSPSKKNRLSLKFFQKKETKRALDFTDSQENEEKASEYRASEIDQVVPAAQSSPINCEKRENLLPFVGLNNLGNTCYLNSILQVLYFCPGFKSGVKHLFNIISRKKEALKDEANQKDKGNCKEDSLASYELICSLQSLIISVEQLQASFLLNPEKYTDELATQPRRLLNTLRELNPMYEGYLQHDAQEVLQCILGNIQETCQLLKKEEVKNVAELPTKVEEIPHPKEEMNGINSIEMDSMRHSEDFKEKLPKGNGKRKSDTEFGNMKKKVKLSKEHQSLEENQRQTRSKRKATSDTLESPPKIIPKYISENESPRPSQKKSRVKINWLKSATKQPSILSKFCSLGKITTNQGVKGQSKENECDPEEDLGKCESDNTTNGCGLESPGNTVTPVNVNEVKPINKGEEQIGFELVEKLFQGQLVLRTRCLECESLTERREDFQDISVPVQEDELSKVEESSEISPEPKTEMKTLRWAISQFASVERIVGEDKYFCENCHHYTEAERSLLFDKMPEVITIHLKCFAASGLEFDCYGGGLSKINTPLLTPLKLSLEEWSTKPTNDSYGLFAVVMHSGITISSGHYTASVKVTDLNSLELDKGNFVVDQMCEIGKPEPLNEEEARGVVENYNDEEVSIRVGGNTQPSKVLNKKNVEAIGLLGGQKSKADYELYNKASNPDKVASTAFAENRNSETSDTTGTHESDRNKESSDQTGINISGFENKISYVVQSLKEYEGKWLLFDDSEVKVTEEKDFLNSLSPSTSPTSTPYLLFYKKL
T9 sequence (P09936 whole entry): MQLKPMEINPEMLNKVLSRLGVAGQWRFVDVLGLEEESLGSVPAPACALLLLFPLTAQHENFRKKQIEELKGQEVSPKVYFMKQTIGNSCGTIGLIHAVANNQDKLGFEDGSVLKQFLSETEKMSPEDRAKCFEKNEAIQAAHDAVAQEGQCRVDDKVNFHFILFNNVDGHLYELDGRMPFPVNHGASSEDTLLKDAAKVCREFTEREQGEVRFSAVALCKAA
T15 sequence (Q6R6M4 whole entry): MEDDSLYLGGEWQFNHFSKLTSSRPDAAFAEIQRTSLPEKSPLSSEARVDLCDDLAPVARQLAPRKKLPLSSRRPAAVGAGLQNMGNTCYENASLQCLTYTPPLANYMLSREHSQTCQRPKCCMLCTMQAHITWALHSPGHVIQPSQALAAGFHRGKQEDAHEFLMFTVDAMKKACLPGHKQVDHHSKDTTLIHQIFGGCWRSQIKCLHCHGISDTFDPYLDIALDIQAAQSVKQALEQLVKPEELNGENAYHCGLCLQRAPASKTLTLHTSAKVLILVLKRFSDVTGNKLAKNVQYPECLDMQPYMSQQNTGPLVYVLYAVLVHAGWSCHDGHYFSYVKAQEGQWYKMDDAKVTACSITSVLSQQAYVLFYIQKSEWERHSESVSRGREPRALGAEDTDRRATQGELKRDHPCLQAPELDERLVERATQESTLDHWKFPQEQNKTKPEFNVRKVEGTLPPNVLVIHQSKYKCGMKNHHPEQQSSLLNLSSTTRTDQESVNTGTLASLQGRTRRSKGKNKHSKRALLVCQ

Activity (% control) [1]: 101 % control and 102 % control
Activity (% control) [2]: 100 % control and 103 % control
Activity (% control) [3]: 96 % control and 94 % control
Activity (% control) [4]: 93 % control
Activity (% control) [5]: 112 % control and 107 % control
Activity (% control) [6]: 85 % control and 95 % control
Activity (% control) [7]: 95 % control and 93 % control
Activity (% control) [8]: 93 % control and 94 % control
Activity (% control) [9]: 104 % control and 112 % control
Activity (% control) [10]: 96 % control
Activity (% control) [11]: 89 % control
Activity (% control) [12]: 107 % control and 96 % control
Activity (% control) [13]: 100 % control and 102 % control
Activity (% control) [15]: 102 % control and 101 % control
Activity (% control) [16]: 89 % control and 83 % control
Activity (% control) [17]: 97 % control and 96 % control
Activity (% control) [18]: 100 % control and 99 % control
Activity (% control) [20]: 79 % control and 78 % control
Activity (% control) [21]: 111 % control and 115 % control
Activity (% control) [22]: 103 % control and 98 % control
Activity (% control) [23]: 102 % control and 97 % control
Activity (% control) [24]: 88 % control and 90 % control
Activity (% control) [25]: 81 % control and 82 % control
Activity (% control) ([26]; DUB AMSH-LP(+Zn2+)): 100 % control and 99 % control
Activity (% control) ([26]; DUB AMSH-LP): 98 % control and 90 % control
Activity (% control) [27]: 88 % control and 84 % control
Activity (% control) [28]: 95 % control and 96 % control
Activity (% control) [29]: 95 % control and 99 % control
Activity (% control) [30]: 95 % control and 102 % control
SMILES: O=C(NC1CCNCC1)c1nn(C(=O)c2c(Cl)cccc2Cl)cc1NC(=O)c1c(Cl)cccc1Cl [JMS-175-2]
inhibition of a panel of 48 DUBs [14]: did not fully inhibit any of the DUBs
Activity (% control) [19]: 87 % control and 85 % control

— publication PMC7617869, “Molecular glues that inhibit deubiquitylase activity and inflammatory signaling” (Nature Structural & Molecular Biology, 2025)
